The text below walks through data of patent US6586468B1, “ω-substituted phenyl-prostaglandin E derivatives and drugs containing the same as the active ingredient” (Ono Pharmaceutical Co., Ltd., priority 1998, dated 2003).

Assay [1] concerns the target T1, EP4 (Mus musculus, UniProt P32240).
T1 construct: expressed in transfected cells; host or cells: CHO cells (membrane fraction)
As to the kind of experiment: Binding assay using expression CHO cell of prostanoid receptor subtype, [3H]-PGE2 binding inhibition (EP4). The settings on record: membrane fraction of CHO cells expressing mouse EP4; [3H]-PGE2 2.5 nM; Ki=IC50/(1+([C]/Kd)); read-out: Dissociation Constant Ki (μM) EP4. The method, then: (§1) (i) Binding assay using Expression cell of prostanoids receptor subtype
(§2) The preparation of membrane fraction was carried out according to the method of Sugimoto et al. [J. Biol. Chem., 267, 6463-6466 (1992)], using expression CHO cell of the prostanoids receptor subtype (mouse EP1, EP2, EP3α, EP4 and human IP).
(§3) The standard assay mixture containing membrane fraction (0.5 mg/ml) and [^3H]-PGE2 in a final volume of 200 μl was incubated for 1 hour at room temperature. The reaction was terminated by addition of ice-cooled buffer (3 ml). The mixture was filtered through a GF/B glass filter under reduced pressure. The radioactivity associated with the filter was measured by liquid scintillation counting.
(§4) Kd and Bmax values were determined from Scatchard plots [Ann. N. Y. Acad. Sci., 51, 660 (1949)]. Non-specific binding was calculated as the binding in the presence of an excess (2.5 μM) of unlabeled PGE2. In the measurement of ^3H-PGE2 binding inhibitory activity, [3H]-PGE2 (2.5 nM) and various concentrations of the compounds of the present invention were added. The following buffer was used in all reactions.
(§5) Buffer; 10 mM potassium phosphate (pH 6.0), 1 mM EDTA, 10 mM MgCl2, 0.1 M NaCl.
(§6) The dissociation constant Ki (μM) of each compound was calculated by the following equation.

The target of assay [2] is T2, EP3α (Mus musculus, UniProt P30557).
T2 construct: expressed in transfected cells; host or cells: CHO cells (membrane fraction)
T2 sequence (P30557 1-365): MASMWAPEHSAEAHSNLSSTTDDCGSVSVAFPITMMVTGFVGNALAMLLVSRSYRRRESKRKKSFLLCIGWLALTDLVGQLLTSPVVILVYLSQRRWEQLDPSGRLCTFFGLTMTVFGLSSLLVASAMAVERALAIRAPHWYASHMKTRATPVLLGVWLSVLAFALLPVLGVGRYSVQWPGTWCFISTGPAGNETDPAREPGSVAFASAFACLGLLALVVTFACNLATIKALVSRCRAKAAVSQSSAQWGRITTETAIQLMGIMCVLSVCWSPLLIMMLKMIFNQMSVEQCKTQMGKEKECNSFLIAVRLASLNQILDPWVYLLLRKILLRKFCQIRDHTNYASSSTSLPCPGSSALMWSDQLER
As to the kind of experiment: Binding assay using expression CHO cell of prostanoid receptor subtype, [3H]-PGE2 binding inhibition (EP3α). The settings on record: membrane fraction of CHO cells expressing mouse EP3α; [3H]-PGE2 2.5 nM; Ki=IC50/(1+([C]/Kd)); read-out: Dissociation Constant Ki (μM) EP3α. The method, then:
as §1, §2, §3, §4, §5, §6

A value given as a limit tells only on which side of the number the result lay.

T1 sequence (P32240 whole entry): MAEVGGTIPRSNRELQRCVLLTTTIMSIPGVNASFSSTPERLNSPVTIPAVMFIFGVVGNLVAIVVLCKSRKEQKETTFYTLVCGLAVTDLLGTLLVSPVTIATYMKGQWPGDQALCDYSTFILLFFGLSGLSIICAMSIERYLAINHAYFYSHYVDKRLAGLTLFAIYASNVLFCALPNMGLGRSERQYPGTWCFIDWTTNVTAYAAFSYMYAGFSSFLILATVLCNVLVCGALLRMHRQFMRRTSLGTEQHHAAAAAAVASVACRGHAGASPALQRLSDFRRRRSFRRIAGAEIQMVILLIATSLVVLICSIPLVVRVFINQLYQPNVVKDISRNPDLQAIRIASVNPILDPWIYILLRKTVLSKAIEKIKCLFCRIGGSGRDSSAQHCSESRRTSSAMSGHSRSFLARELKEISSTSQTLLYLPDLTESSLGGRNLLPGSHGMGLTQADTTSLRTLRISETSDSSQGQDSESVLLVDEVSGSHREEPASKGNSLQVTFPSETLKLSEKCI

As to `O=C(O)CCCCCC[C@H]1C(=O)C[C@@H](O)[C@@H]1/C=C/[C@@H](O)Cc1cccc(CCF)c1` [2 (1), (11α,15α)-9-oxo-11,15-Dihydroxy-16-[3-(2-fluoroethyl)phenyl]-17,18,19,20-tetranorprost-13E-enoic Acid], the Ki amounted to 0.0016 µM in assay [1] and 0.12 µM in assay [2].

Take `Cc1cc(C[C@H](O)/C=C/[C@H]2[C@H](O)CC(=O)[C@@H]2CCCCCCC(=O)O)ccc1O` [2 (4), (11α,15α)-9-oxo-11,15-dihydroxy-16-(3-methyl-4-hydroxyphenyl)-17,18,19,20-tetranorprost-13E-enoic Acid]: the Ki in assay [1] was 0.003 µM; in assay [2], more than 10 µM.

`CCOCc1cccc(C[C@H](O)/C=C/[C@H]2[C@H](O)CC(=O)[C@@H]2C/C=C\CCCC(=O)O)c1` [2 (11), (11α,15α)-9-oxo-11,15-Dihydroxy-16-(3-ethoxymethylphenyl)-17,18,19,20-tetranorprost-5Z,13E-dienoic Acid]: the Ki is 0.01 µM in assay [1] and 0.54 µM in assay [2].

For `COCc1cccc(C[C@H](O)/C=C/[C@H]2CCC(=O)[C@@H]2C/C=C\CCCC(=O)O)c1` [2 (15), (15α)-9-oxo-15-Hydroxy-16-(3-methoxymethylphenyl)-17,18,19,20-tetranorprost-5Z,13E-dienoic Acid], the values for the Ki in assay [1] and in assay [2] were 0.0026 µM and 1.4 µM, respectively.

As to `CCCOCc1cccc(CC(O)/C=C/[C@@H]2[C@@H](C/C=C\CCCC(=O)O)[C@H](F)C[C@H]2O)c1` (stereo partly drawn) [4 (12), (9β,11α,15ξ)-9-Fluoro-11,15-dihydroxy-16-(3-propyloxymethylphenyl)-17,18,19,20-tetranorprost-5Z,13E-dienoic Acid], the Ki in assay [1] was determined as 0.0059 µM; in assay [2] it was 0.35 µM.

Regarding `CCOCc1cccc(CC(O)/C=C/[C@H]2[C@H](O)CC(=O)[C@@H]2CCc2ccc(C(=O)O)cc2)c1` (stereo partly drawn) [5 (12), (11α,15α)-9-oxo-11,15-Dihydroxy-16-(3-ethoxymethylphenyl)-1,6-(1,4-phenylene)-2,3,4,5,17,18,19,20-octanorprost-13E-enoic Acid], the Ki was determined as 0.008 µM in assay [1] and 6 µM in assay [2].

As to `CCOCc1cccc(C[C@H](O)/C=C/[C@@H]2[C@@H](C/C=C\CCCC(=O)O)[C@H](Cl)C[C@H]2O)c1` [8 (6), (9β,11α,15α)-9-Chloro-11,15-dihydroxy-16-(3-ethoxymethylphenyl)-17,18,19,20-tetranorprost-5Z,13E-dienoic Acid], the figures for the Ki in assay [1] and in assay [2] were 0.0015 µM and 0.04 µM, respectively.

For `COCc1cccc(C[C@H](O)/C=C/[C@H]2[C@H](O)CC(=O)[C@@H]2CCCCCCC(=O)O)c1` [Example 2, (11α,15α)-9-oxo-11,15-Dihydroxy-16-(3-methoxymethylphenyl)-17,18,19,20-tetranorprost-13E-enoic Acid], the Ki in assay [1] was 0.006 µM; in assay [2], 0.82 µM.

Consider `COCc1cc(CC(O)/C=C/[C@@H]2[C@@H](C/C=C\CCCC(=O)O)[C@H](Cl)C[C@H]2O)ccc1O` (stereo partly drawn) [Example 4, (9β,11α,15ξ)-9-Chloro-11,15-dihydroxy-16-(3-methoxymethyl-4-hydroxyphenyl)-17,18,19,20-tetranorprost-5Z,13E-dienoic Acid], for which the inhibitory constant (Ki) was determined as 0.0036 µM in assay [1] and 3.2 µM in assay [2].

`Cc1ccc(C[C@H](O)/C=C/[C@H]2[C@H](O)CC(=O)[C@@H]2C/C=C\CCCC(=O)O)cc1` [reference compound]: the results for the Ki in assay [1] and in assay [2] were 0.032 µM and 0.011 µM, respectively.

As to `COc1ccc(C[C@H](O)/C=C/[C@H]2[C@H](O)CC(=O)[C@@H]2C/C=C\CCCC(=O)O)cc1` [reference compound], the Ki in assay [1] came out at 0.067 µM; in assay [2], 0.048 µM.

By Ki is commonly meant a dissociation constant, usually derived from enzyme kinetics or from competition with a known ligand.
